Measured values from ChEMBL document CHEMBL1201862, “PubChem BioAssay data set” (2004).
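Step 1: Grow cells in 96-well plates. Step 2: Expose to compound for 48 hours at 5 concentrations. Step 3: Interpolate endpoints linearly; if unreached, use highest concentration. GI50 = concentration required for 50% inhibition of growth.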 Active and inactive are the calls of the source. Cut-off read from the data, not from the text of the source: active = GI50 up to about 1.1 µM and inactive = higher.

Assays:
Experiment in all cases: DTP human tumour cell line panel, 48 h
[1] = system: 786-0
[2] = system: A498
[3] = system: A549
[4] = system: ACHN
[5] = system: BT-549
[6] = system: CAKI-1
[7] = system: CCRF-CEM
[8] = system: COLO 205
[9] = system: DU-145
[10] = system: EKVX
[11] = system: HCT-116
[12] = system: HCT-15
[13] = system: HL-60
[14] = system: HOP-62
[15] = system: HOP-92
[16] = system: HT-29
[17] = system: Hs-578T
[18] = system: IGROV-1
[19] = system: K562
[20] = system: KM12
[21] = system: LOX IMVI
[22] = system: M14
[23] = system: MCF7
[24] = system: MDA-MB-231
[25] = system: MDA-MB-435
[26] = system: MDA-N
[27] = system: MOLT-4
[28] = system: Malme-3M
[29] = system: NCI-H226
[30] = system: NCI-H23
[31] = system: NCI-H460
[32] = system: NCI-H522
[33] = system: NCI/ADR-RES
[34] = system: OVCAR-3
[35] = system: OVCAR-4
[36] = system: OVCAR-5
[37] = system: OVCAR-8
[38] = system: PC-3
[39] = system: RPMI-8226
[40] = system: RXF 393
[41] = system: SF-268
[42] = system: SF-295
[43] = system: SF-539
[44] = system: SK-MEL-28
[45] = system: SK-MEL-2
[46] = system: SK-MEL-5
[47] = system: SK-OV-3
[48] = system: SN12C
[49] = system: SNB-19
[50] = system: SNB-75
[51] = system: SR
[52] = system: SW-620
[53] = system: T47D
[54] = system: TK-10
[55] = system: U-251
[56] = system: UACC-257
[57] = system: UACC-62
[58] = system: UO-31
[59] = system: HCC 2998

## O=C/C(=C(/Br)I)c1ccccc1
[1]
  GI50: 2.54 µM (inactive)
[2]
  GI50: 18.6 µM (inactive)
[3]
  GI50: 22.9 µM (inactive)
[4]
  GI50: 3.1 µM (inactive)
[5]
  GI50: 2.42 µM (inactive)
[6]
  GI50: 2.14 µM (inactive)
[7]
  GI50: 0.248 µM (active)
[8]
  GI50: 3.91 µM (inactive)
[9]
  GI50: 15.7 µM (inactive)
[10]
  GI50: 15.3 µM (inactive)
[11]
  GI50: 1.51 µM (inactive)
[12]
  GI50: 2.24 µM
[13]
  GI50: 0.352 µM (active)
[14]
  GI50: 15.7 µM (inactive)
[15]
  GI50: 2.28 µM (inactive)
[16]
  GI50: 2.29 µM (inactive)
[17]
  GI50: 9.59 µM (inactive)
[18]
  GI50: 4.41 µM (inactive)
[19]
  GI50: 0.624 µM (active)
[20]
  GI50: 6.61 µM (inactive)
[21]
  GI50: 3.81 µM (inactive)
[22]
  GI50: 1.8 µM (inactive)
[23]
  GI50: 1.3 µM (inactive)
[24]
  GI50: 2.56 µM (inactive)
[25]
  GI50: 2.56 µM (inactive)
[26]
  GI50: 2.54 µM (inactive)
[27]
  GI50: 0.597 µM (active)
[28]
  GI50: 1.92 µM (inactive)
[29]
  GI50: 9.64 µM (inactive)
[30]
  GI50: 5.11 µM (inactive)
[31]
  GI50: 8.99 µM (inactive)
[32]
  GI50: 1.78 µM (inactive)
[33]
  GI50: 3.95 µM (inactive)
[34]
  GI50: 2.74 µM (inactive)
[35]
  GI50: 3.86 µM (inactive)
[36]
  GI50: 9.86 µM (inactive)
[37]
  GI50: 2.83 µM (inactive)
[38]
  GI50: 6.35 µM (inactive)
[39]
  GI50: 2.25 µM (inactive)
[40]
  GI50: 2.71 µM (inactive)
[41]
  GI50: 2.3 µM (inactive)
[42]
  GI50: 5.77 µM (inactive)
[43]
  GI50: 2.53 µM (inactive)
[44]
  GI50: 1.63 µM (inactive)
[45]
  GI50: 3.42 µM (inactive)
[46]
  GI50: 7.06 µM (inactive)
[47]
  GI50: 14.5 µM (inactive)
[48]
  GI50: 1.9 µM (inactive)
[49]
  GI50: 13.6 µM (inactive)
[50]
  GI50: 5.45 µM (inactive)
[51]
  GI50: 0.448 µM (active)
[52]
  GI50: 1.15 µM (inactive)
[53]
  GI50: 1.86 µM (inactive)
[54]
  GI50: 6.12 µM (inactive)
[55]
  GI50: 4.1 µM (inactive)
[56]
  GI50: 5.69 µM (inactive)
[57]
  GI50: 6.7 µM (inactive)
[58]
  GI50: 4.97 µM (inactive)

## NC(=O)c1cc2ccc(O)cc2o/c1=N/c1ccccc1
[1]
  GI50: 30.3 µM (inactive)
[2]
  GI50: 16.3 µM (inactive)
[3]
  GI50: 25.6 µM (inactive)
[4]
  GI50: 24.9 µM (inactive)
[5]
  GI50: 24.4 µM (inactive)
[6]
  GI50: 19.3 µM (inactive)
[7]
  GI50: 37.5 µM (inactive)
[8]
  GI50: 18.5 µM (inactive)
[9]
  GI50: 43.2 µM (inactive)
[10]
  GI50: 31.1 µM (inactive)
[59]
  GI50: 22.2 µM (inactive)
[11]
  GI50: 24.4 µM (inactive)
[12]
  GI50: 26.4 µM
[13]
  GI50: 25.1 µM (inactive)
[14]
  GI50: 40.7 µM (inactive)
[15]
  GI50: 34 µM (inactive)
[16]
  GI50: 33 µM (inactive)
[17]
  GI50: 64.3 µM (inactive)
[18]
  GI50: 26.5 µM (inactive)
[19]
  GI50: 34.5 µM (inactive)
[20]
  GI50: 27.2 µM (inactive)
[21]
  GI50: 24 µM (inactive)
[22]
  GI50: 29.5 µM (inactive)
[23]
  GI50: 31.2 µM (inactive)
[24]
  GI50: 67.8 µM (inactive)
[25]
  GI50: 23.3 µM (inactive)
[26]
  GI50: 22.5 µM (inactive)
[27]
  GI50: 29 µM (inactive)
[28]
  GI50: 50.8 µM (inactive)
[29]
  GI50: 17.1 µM (inactive)
[30]
  GI50: 18.1 µM (inactive)
[31]
  GI50: 25.9 µM (inactive)
[32]
  GI50: 17.8 µM (inactive)
[33]
  GI50: 23.8 µM (inactive)
[34]
  GI50: 35.2 µM (inactive)
[35]
  GI50: 42.3 µM (inactive)
[36]
  GI50: 67.9 µM (inactive)
[37]
  GI50: 30.3 µM (inactive)
[38]
  GI50: 37.7 µM (inactive)
[39]
  GI50: 20.7 µM (inactive)
[40]
  GI50: 26.2 µM (inactive)
[41]
  GI50: 51.2 µM (inactive)
[42]
  GI50: 43.5 µM (inactive)
[44]
  GI50: 35.6 µM (inactive)
[45]
  GI50: 17.2 µM (inactive)
[46]
  GI50: 18.4 µM (inactive)
[47]
  GI50: 34.5 µM (inactive)
[48]
  GI50: 22.3 µM (inactive)
[49]
  GI50: 36 µM (inactive)
[50]
  GI50: 13.5 µM (inactive)
[51]
  GI50: 16.1 µM (inactive)
[52]
  GI50: 26.2 µM (inactive)
[53]
  GI50: 16 µM (inactive)
[54]
  GI50: 27.1 µM (inactive)
[55]
  GI50: 34.7 µM (inactive)
[56]
  GI50: 39.3 µM (inactive)
[57]
  GI50: 28.5 µM (inactive)
[58]
  GI50: 3.6 µM (inactive)
